Assay results published in patent US11053258B2, “Pyrimidine carboxamides as GSK-3 inhibitors” (BRISTOL-MYERS SQUIBB COMPANY, priority 2016, dated 2021).
Where “and” joins values, the source holds several entries; their conditions need not be identical. Equal values may be shown once. Read-outs that look alike come from different tables or passages of the source.

Tests used:
[1] = from C=CCN1CCN(c2cc(F)ncc2NC(=O)c2ccnc(NCC(C)(O)CC=C)n2)CC1; rcm bond; 18-membered ring; Zhan 1B; ClCH2CH2Cl; 4.5 mM; 70.0 °C; 1.5 h
[2] = biological target: GSK3β (Homo sapiens, UniProt P49841); experiment: GSK3β kinase assay (Caliper LabChip3000, fluoresceinated peptide substrate); type: biochemical; details: first value of cell; 250 pM enzyme, 20 uM ATP, 20 hours room temperature; read-out: GSK3β/α (nM): GSK3β IC50
Experimental: (§1) The kinase assay was performed in V-bottom 384-well plates. The final assay volume was 30 μl prepared from 15 μl additions of enzyme, substrates (fluoresceinated peptide FL-KRREILSRRP[ps]ERYR-NH2 and ATP) and test compounds in assay buffer (100 mM HEPES pH 7.4, 10 mM MgCl2, 25 mM Beta-Glycerolphosphate, 0.015% Brij35 and 0.25 mM DTT). The reaction was incubated at room temperature for 20 hours and terminated by adding 45 μl of 35 mM EDTA to each sample. The reaction mixture was analyzed on the Caliper LabChip3000 (Caliper, Hopkinton, Mass.) by electrophoretic separation of the unphosphorylated substrate and phosphorylated product. Inhibition data were calculated by comparison of the no enzyme control reactions for 100% inhibition and vehicle-only reactions for 0% inhibition. The final concentration of reagents in the assay were 250 pM GSK3α or GSK3β, 20 uM ATP, 1.5 uM FL-KRREILSRRP[ps]ERYR-NH2, and 1.6% DMSO. Dose response curves were generated to determine the concentration required to inhibit 50% of the kinase activity (IC50). Compounds were dissolved at 10 mM in dimethylsulfoxide (DMSO) and evaluated at eleven concentrations. IC50 values were derived by non-linear regression analysis.

[3] = rcm bond, ClCH2CH2Cl, 70.0 °C
[4] = test system: pTau; experiment: pTau assay; type: cell-based
[5] = biological target: GSK3α (Homo sapiens, UniProt P49840); experiment: GSK3α kinase assay (Caliper LabChip3000, fluoresceinated peptide substrate); type: biochemical; details: second value of cell; 250 pM enzyme, 20 uM ATP, 20 hours room temperature; read-out: GSK3β/α (nM): GSK3α IC50
Experimental: as §1

Sequence of GSK3α (P49840 whole entry, species assumed): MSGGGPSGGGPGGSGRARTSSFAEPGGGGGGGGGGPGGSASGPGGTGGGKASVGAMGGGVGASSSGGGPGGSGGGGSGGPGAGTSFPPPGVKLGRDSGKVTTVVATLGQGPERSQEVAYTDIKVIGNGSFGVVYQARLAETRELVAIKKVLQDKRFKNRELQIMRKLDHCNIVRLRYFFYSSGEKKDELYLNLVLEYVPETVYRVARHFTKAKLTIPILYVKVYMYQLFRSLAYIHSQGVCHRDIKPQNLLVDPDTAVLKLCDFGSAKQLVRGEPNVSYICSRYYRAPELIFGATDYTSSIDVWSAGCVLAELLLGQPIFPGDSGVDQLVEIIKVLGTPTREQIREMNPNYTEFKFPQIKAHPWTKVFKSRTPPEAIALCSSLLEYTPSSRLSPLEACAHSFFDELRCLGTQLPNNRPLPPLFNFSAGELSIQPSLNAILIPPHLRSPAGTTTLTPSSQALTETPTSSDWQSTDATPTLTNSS
Sequence of GSK3β (P49841 whole entry, species assumed): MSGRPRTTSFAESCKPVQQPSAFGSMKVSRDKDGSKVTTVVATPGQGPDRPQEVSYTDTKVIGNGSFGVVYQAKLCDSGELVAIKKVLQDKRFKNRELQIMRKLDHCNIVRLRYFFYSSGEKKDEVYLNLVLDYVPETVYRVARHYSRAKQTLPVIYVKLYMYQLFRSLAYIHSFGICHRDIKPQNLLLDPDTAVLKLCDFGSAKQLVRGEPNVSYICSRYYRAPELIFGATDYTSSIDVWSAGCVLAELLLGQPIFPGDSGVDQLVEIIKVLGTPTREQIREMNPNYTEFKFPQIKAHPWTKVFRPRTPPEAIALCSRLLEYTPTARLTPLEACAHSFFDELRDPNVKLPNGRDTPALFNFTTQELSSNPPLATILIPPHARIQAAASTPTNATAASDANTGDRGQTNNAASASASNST

SMILES | ring closure, yield after HPLC [1] [%] | IC50 [2] [nM] | ring closure, isolated yield ([3]; from C=CCCOc1ccncc1NC(=O)c1ccnc(NCC(C)(O)CC=C)n1, 16-membered ring, Zhan 1B, 4.33 mM, 1.5 h) [%] | IC50 [4] [nM] | IC50 [5] [nM] | ring closure, isolated yield ([3]; from C=CCCC(O)CNc1nccc(C(=O)Nc2cnc(F)cc2N2CCN(CC=C)CC2)n1, 19-membered ring, Zhan 1B (30 mol%), 5.17 mM, 3.0 h)
CC1(O)CC=CCN2CCN(CC2)c2cc(F)ncc2NC(=O)c2ccnc(n2)NC1 (stereo not drawn) | 37 | – | – | – | – | –
CC1(O)CC=CCCOc2ccncc2NC(=O)c2ccnc(n2)NC1 (mixture of isomers) [Example 41, (E)-11-Hydroxy-11-methyl-5-oxa-3,13-diaza-1(4,2)-pyrimidina-4(3,4)-pyridinacyclotridecaphan-8-en-2-one] | – | 2.7 | 39 | 266 | 4.7 | –
O=C1Nc2cnc(F)cc2N2CCN(CC=CCCC(O)CNc3nccc1n3)CC2 (single isomer, unassigned) [Example 28, (E)-2^6-fluoro-8-hydroxy-3,6-diaza-5(4,2)-pyrimidina-1(1,4)-piperazina-2(4,3)-pyridinacyclotridecaphan-11-en-4-one] | – | 14.7 | – | 1870 | 17.5 | 22% and 13%
